Data: ChEMBL document CHEMBL4138122, “Azaphenothiazines - promising phenothiazine derivatives. An insight into nomenclature, synthesis, structure elucidation and biological properties” (Eur J Med Chem, 2017)
≈ marks a conversion by molar mass, not a printed value.

Assays:
Hs-578T = experiment: Cytotoxicity against human Hs578T cells assessed as cell growth inhibition after 48 hrs by SRB assay; type: functional, cell-based
786-0 = experiment: Cytotoxicity against human 786-O cells assessed as cell growth inhibition after 48 hrs by SRB assay; type: functional, cell-based; conditions: 786-0, 48 h
SNB-75 = experiment: Cytotoxicity against human SNB75 cells assessed as cell growth inhibition after 48 hrs by SRB assay; type: functional, cell-based; conditions: SNB-75, 48 h
[1] = biological target: Intercellular adhesion molecule 1 (Homo sapiens, UniProt P05362); experiment: Inhibition of ICAM1 (unknown origin)
Intercellular adhesion molecule 1, sequence (P05362 whole entry): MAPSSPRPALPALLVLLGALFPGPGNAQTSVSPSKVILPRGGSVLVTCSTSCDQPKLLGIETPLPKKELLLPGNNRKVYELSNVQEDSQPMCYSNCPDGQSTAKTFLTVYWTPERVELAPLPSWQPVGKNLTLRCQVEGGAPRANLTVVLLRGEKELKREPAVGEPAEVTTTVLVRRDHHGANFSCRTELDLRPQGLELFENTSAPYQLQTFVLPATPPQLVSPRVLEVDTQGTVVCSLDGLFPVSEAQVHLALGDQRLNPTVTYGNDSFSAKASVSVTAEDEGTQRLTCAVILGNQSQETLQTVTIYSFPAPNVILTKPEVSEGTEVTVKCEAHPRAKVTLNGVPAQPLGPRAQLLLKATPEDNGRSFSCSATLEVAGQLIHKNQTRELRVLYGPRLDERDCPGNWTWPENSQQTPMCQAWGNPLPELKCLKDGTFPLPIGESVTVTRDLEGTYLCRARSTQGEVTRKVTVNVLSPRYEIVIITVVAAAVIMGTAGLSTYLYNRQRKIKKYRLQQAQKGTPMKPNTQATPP

HUVEC [2] = experiment: Anti-inflammatory activity in human HUVEC cells assessed as reduction in TNFalpha-induced VCAM expression after 4 hrs by ELISA; type: functional, cell-based
HUVEC [3] = experiment: Anti-inflammatory activity in human HUVEC cells assessed as reduction in TNFalpha-induced E-selectin expression after 4 hrs by ELISA; type: functional, cell-based
Mus musculus [4] = experiment: Anti-inflammatory activity in IL1-induced paw inflammation Balb/c mouse model assessed as inhibition of neutrophil migration at 10 mg/kg, po, pretreated for 30 mins followed by IL1 challenge measured after 2 hrs by spectrophotometric method; type: functional
[5] = biological target: Vascular cell adhesion protein 1 (Homo sapiens, UniProt P19320); experiment: Inhibition of VCAM1 (unknown origin)
Vascular cell adhesion protein 1, sequence (P19320 whole entry): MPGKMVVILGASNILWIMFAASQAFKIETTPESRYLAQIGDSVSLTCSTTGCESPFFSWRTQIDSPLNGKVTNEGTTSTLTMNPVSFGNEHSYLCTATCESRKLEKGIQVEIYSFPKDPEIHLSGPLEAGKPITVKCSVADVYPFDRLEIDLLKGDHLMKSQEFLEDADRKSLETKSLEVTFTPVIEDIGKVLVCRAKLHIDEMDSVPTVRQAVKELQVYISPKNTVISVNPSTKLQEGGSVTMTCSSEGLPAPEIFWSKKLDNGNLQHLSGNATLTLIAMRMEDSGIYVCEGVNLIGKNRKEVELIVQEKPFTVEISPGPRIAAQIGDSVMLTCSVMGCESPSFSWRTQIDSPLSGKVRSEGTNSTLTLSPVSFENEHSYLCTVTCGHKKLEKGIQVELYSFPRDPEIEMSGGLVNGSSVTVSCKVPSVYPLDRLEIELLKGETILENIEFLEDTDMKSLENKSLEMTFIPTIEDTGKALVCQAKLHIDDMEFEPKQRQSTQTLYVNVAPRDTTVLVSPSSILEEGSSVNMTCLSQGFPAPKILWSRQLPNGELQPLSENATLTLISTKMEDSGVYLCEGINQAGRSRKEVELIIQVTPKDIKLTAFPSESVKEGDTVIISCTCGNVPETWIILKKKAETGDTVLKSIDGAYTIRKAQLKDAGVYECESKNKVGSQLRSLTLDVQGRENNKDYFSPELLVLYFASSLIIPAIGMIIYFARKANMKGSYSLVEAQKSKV

MCF7 = experiment: Growth inhibition of human MCF7 cells at 10 uM; type: functional; conditions: read-out: GI
T47D = experiment: Growth inhibition of human T47D cells at 10 uM; type: functional; conditions: read-out: GI
UO-31 [6] = experiment: Growth inhibition of human UO31 cells at 10 uM; type: functional; conditions: read-out: GI
SK-MEL-2 = experiment: Growth inhibition of human SK-MEL-2 cells at 10 uM; type: functional; conditions: read-out: GI
HCT-116 = experiment: Cytotoxicity against human HCT116 cells assessed as cell growth inhibition after 48 hrs by SRB assay; type: functional, cell-based; conditions: HCT-116, 48 h
CCRF-CEM = experiment: Cytotoxicity against human CCRF-CEM cells assessed as cell growth inhibition after 48 hrs by SRB assay; type: functional, cell-based
OVCAR-5 = experiment: Cytotoxicity against human OVCAR5 cells assessed as cell growth inhibition after 48 hrs by SRB assay; type: functional, cell-based; conditions: OVCAR-5, 48 h
MOLT-4 = experiment: Cytotoxicity against human MOLT4 cells assessed as cell growth inhibition after 48 hrs by SRB assay; type: functional, cell-based; conditions: MOLT-4, 48 h
IGROV-1 = experiment: Cytotoxicity against human IGROV1 cells assessed as cell growth inhibition after 48 hrs by SRB assay; type: functional, cell-based; conditions: IGROV-1, 48 h
NCI-H460 = experiment: Cytotoxicity against human NCI-H460 cells assessed as cell growth inhibition after 48 hrs by SRB assay; type: functional, cell-based; conditions: NCI-H460, 48 h
SF-295 = experiment: Cytotoxicity against human SF295 cells assessed as cell growth inhibition after 48 hrs by SRB assay; type: functional, cell-based; conditions: SF-295, 48 h
PC-3 = experiment: Cytotoxicity against human PC3 cells assessed as cell growth inhibition after 48 hrs by SRB assay; type: functional, cell-based; conditions: PC-3, 48 h
OVCAR-4 = experiment: Cytotoxicity against human OVCAR4 cells assessed as cell growth inhibition after 48 hrs by SRB assay; type: functional, cell-based; conditions: OVCAR-4, 48 h
HOP-92 = experiment: Cytotoxicity against human HOP92 cells assessed as cell growth inhibition after 48 hrs by SRB assay; type: functional, cell-based; conditions: HOP-92, 48 h
SK-MEL-5 = experiment: Cytotoxicity against human SK-MEL-5 cells assessed as cell growth inhibition after 48 hrs by SRB assay; type: functional, cell-based; conditions: SK-MEL-5, 48 h
RXF 393 = experiment: Cytotoxicity against human RXF393 cells assessed as cell growth inhibition after 48 hrs by SRB assay; type: functional, cell-based; conditions: RXF 393, 48 h
OVCAR-8 = experiment: Cytotoxicity against human OVCAR8 cells assessed as cell growth inhibition after 48 hrs by SRB assay; type: functional, cell-based; conditions: OVCAR-8, 48 h
Liver = experiment: Antioxidant activity in rat liver microsomal membranes assessed as inhibition of Fe(2+)/ascorbate-induced lipid peroxidation; type: functional, microsomes, microsome
HL-60 = experiment: Cytotoxicity against human HL60 cells assessed as cell growth inhibition after 48 hrs by SRB assay; type: functional, cell-based; conditions: HL-60, 48 h
COLO 205 = experiment: Cytotoxicity against human COLO205 cells assessed as cell growth inhibition after 48 hrs by SRB assay; type: functional, cell-based; conditions: COLO 205, 48 h
SF-539 = experiment: Cytotoxicity against human SF539 cells assessed as cell growth inhibition after 48 hrs by SRB assay; type: functional, cell-based; conditions: SF-539, 48 h
PBMC = experiment: Inhibition of anti-CD3 induced human PBMC proliferation at 1 ug/ml; type: functional
HOP-62 = experiment: Cytotoxicity against human HOP62 cells assessed as cell growth inhibition after 48 hrs by SRB assay; type: functional, cell-based; conditions: HOP-62, 48 h
ACHN = experiment: Cytotoxicity against human ACHN cells assessed as cell growth inhibition after 48 hrs by SRB assay; type: functional, cell-based
M14 = experiment: Cytotoxicity against human M14 cells assessed as cell growth inhibition after 48 hrs by SRB assay; type: functional, cell-based; conditions: M14, 48 h
SNB-19 = experiment: Cytotoxicity against human SNB19 cells assessed as cell growth inhibition after 48 hrs by SRB assay; type: functional, cell-based; conditions: SNB-19, 48 h
[7] = tested on: Mycobacterium tuberculosis; experiment: Antitubercular activity against Mycobacterium tuberculosis; type: functional
UO-31 [8] = experiment: Cytotoxicity against human UO31 cells assessed as cell growth inhibition at 3.2 ug/ml after 48 hrs by SRB assay; type: functional; conditions: UO-31, 48 h, read-out: GI
[9] = Inhibition of LTB4 formation in rat polymorphonuclear leukocytes preincubated for 2 mins followed by A-23187 addition after 4 mins; type: functional, cell-based
Trachea = experiment: Inhibition of egg albumin antigen challenge-induced contraction response in methacholine-primed guinea pig trachea at 3 ug/ml; type: functional; conditions: Cavia porcellus
Mus musculus [10] = experiment: Anti-inflammatory activity in mouse IL-1-induced paw inflammation model assessed as inhibition of neutrophil infiltration at 10 mg/kg, po; type: functional; conditions: Mus musculus, po
[11] = Oral bioavailability in rat at 3 mg/kg; type: ADME, organism-based; conditions: in vivo

Cc1ccc(S(=O)(=O)NCCN2c3nc4ccccc4cc3Sc3cc4ccccc4nc32)cc1
IC50 (Hs-578T): 1.7 µM
IC50 (786-0): 0.48 µM
IC50 (SNB-75): 1.7 µM

CN(C)S(=O)(=O)NC1CCN(Cc2ccc3c(c2)Nc2nccnc2S3)CC1
IC50 [1]: 0.27 to 1.4 µM
IC50 (HUVEC [2]): 0.36 µM
IC50 (HUVEC [3]): 0.55 µM
inhibition in vivo at 10 mg/kg (Mus musculus [4]): 83.4 to 89.7%
IC50 [5]: 4.5 µM

CCCCN1c2nc3ccccc3cc2Sc2cc3ccccc3nc21
inhibition of growth at 10 µM (MCF7): 93%
inhibition of growth at 10 µM (T47D): 86%
inhibition of growth at 10 µM (UO-31 [6]): 78%

c1ccc(N2c3nc4ccccc4cc3Sc3cc4ccccc4nc32)nc1
inhibition of growth at 10 µM (SK-MEL-2): 61%
inhibition of growth at 10 µM (UO-31 [6]): 57 to 73%

O=C(NCCCl)NCCN1c2nc3ccccc3cc2Sc2cc3ccccc3nc21
IC50 (HCT-116): 0.25 to 1 µM
IC50 (CCRF-CEM): 0.25 to 1 µM
IC50 (OVCAR-5): 0.25 to 1 µM
IC50 (786-0): 0.25 to 1 µM
IC50 (MOLT-4): 0.25 to 1 µM
IC50 (IGROV-1): 0.25 to 1 µM
IC50 (NCI-H460): 0.25 to 1 µM
IC50 (SF-295): 0.25 to 1 µM
IC50 (PC-3): 0.25 to 1 µM
IC50 (SNB-75): 0.25 to 1 µM
IC50 (OVCAR-4): 0.25 to 1 µM
IC50 (HOP-92): 0.25 to 1 µM
IC50 (SK-MEL-5): 0.087 µM

c1cc2c(cn1)Nc1ccncc1S2
IC50 (RXF 393): 3.1 mg/L (≈ 15.4 µM)
IC50 (HCT-116): 3.6 mg/L
IC50 (OVCAR-8): 7.1 mg/L (≈ 35.3 µM)
IC50 (Hs-578T): 5.9 mg/L
IC50 (Liver): 64 µM
IC50 (786-0): 3.9 mg/L
IC50 (HL-60): 4.1 mg/L (≈ 20.4 µM)
IC50 (COLO 205): 2.4 mg/L (≈ 11.9 µM)
IC50 (SF-539): 6.8 mg/L (≈ 33.8 µM)
inhibition at 1 µg/mL (PBMC): 72%
IC50 (HOP-62): 0.3 mg/L (≈ 1.49 µM)
IC50 (ACHN): 5.4 mg/L (≈ 26.8 µM)
IC50 (M14): 6.5 mg/L (≈ 32.3 µM)
IC50 (PC-3): 8.4 mg/L
IC50 (HOP-92): 1.7 mg/L
IC50 (SNB-19): 6.8 mg/L (≈ 33.8 µM)

CCN(c1cnc2sc3c4c(=O)c5c(O)c(C)c6c(c5c-3nc2c1)C(=O)[C@@](C)(O/C=C/[C@H](OC)[C@@H](C)[C@@H](OC(C)=O)[C@H](C)[C@H](O)[C@H](C)[C@@H](O)[C@@H](C)/C=C/C=C(/C)C(=O)N4)O6)C(C)C
MIC [7]: 0.005 mg/L (≈ 0.00564 µM)

O=[N+]([O-])c1ccc(N2c3ccncc3Sc3ccncc32)cc1
inhibition of growth at 3.2 µg/mL (UO-31 [8]): 44%

COc1ccc2c(c1)Sc1nccnc1N2C
IC50 [9]: 1 to 5 mg/L (≈ 4.08 to 20.4 µM)
inhibition at 3 µg/mL (Trachea): 71%

O=C(O)CC1C2CCCC1CN(Cc1ccc3c(c1)Nc1nccnc1S3)C2 (stereo in doubt; 64c)
inhibition in vivo at 10 mg/kg (Mus musculus [10]): 91.5%
IC50 [1]: 3 µM
bioavailability [11]: 98.5%
IC50 [5]: 2.5 µM
